Assays:
Experiment in all cases: relative viability (nuclei count vs DMSO), 5 days (fraction); higher = more cells survive
[1] = compound: COc1cc2nc(N3CCCN(C)CC3)nc(NC3CCN(Cc4ccccc4)CC3)c2cc1OC + Cc1cc(Nc2cc(N3CCN(C)CC3)nc(Sc3ccc(NC(=O)C4CC4)cc3)n2)n[nH]1 [Tozasertib] (partner 0.1 µM)
Summary of the method: (§1)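 Lung cancer cell lines, seeded in 1536-well plates, were treated the following day by pin tool with a single drug or with five library-drug doses (not always all listed) in √10 steps on top of a fixed anchor-drug dose. Cells were fixed and nuclei stained in one step after 5 days, and nuclei were counted. Relative viability is the nuclei count for treated wells divided by that for vehicle wells, reported as medians of duplicate plates.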

AZD6482 + Bortezomib = compound: Cc1cc([C@@H](C)Nc2ccccc2C(=O)O)c2nc(N3CCOCC3)cc(=O)n2c1 [AZD6482] + CC(C)C[C@H](NC(=O)[C@H](Cc1ccccc1)NC(=O)c1cnccn1)B(O)O [Bortezomib] (partner 0.002 µM)
Summary of the method: as §1

AZD6482 + Foretinib = compound: Cc1cc([C@@H](C)Nc2ccccc2C(=O)O)c2nc(N3CCOCC3)cc(=O)n2c1 [AZD6482] + COc1cc2c(Oc3ccc(NC(=O)C4(C(=O)Nc5ccc(F)cc5)CC4)cc3F)ccnc2cc1OCCCN1CCOCC1 [Foretinib] (partner 0.25 µM)
Summary of the method: as §1

AZD6482 + Linsitinib = compound: Cc1cc([C@@H](C)Nc2ccccc2C(=O)O)c2nc(N3CCOCC3)cc(=O)n2c1 [AZD6482] + C[C@]1(O)C[C@@H](c2nc(-c3ccc4ccc(-c5ccccc5)nc4c3)c3c(N)nccn32)C1 [Linsitinib] (partner 1 µM)
Summary of the method: as §1

Cell Line	relative viability ([1]; first compound 0.2 µM)	relative viability ([1]; first compound 0.6325 µM)	relative viability ([1]; first compound 2 µM)	relative viability ([1]; first compound 6.325 µM)	relative viability (AZD6482 + Bortezomib; first compound 0.08 µM)	relative viability (AZD6482 + Bortezomib; first compound 0.253 µM)	relative viability (AZD6482 + Bortezomib; first compound 0.8 µM)	relative viability (AZD6482 + Bortezomib; first compound 2.53 µM)	relative viability (AZD6482 + Bortezomib; first compound 8 µM)	relative viability (AZD6482 + Foretinib; first compound 0.08 µM)	relative viability (AZD6482 + Foretinib; first compound 0.253 µM)	relative viability (AZD6482 + Foretinib; first compound 0.8 µM)	relative viability (AZD6482 + Foretinib; first compound 8 µM)	relative viability (AZD6482 + Linsitinib; first compound 0.08 µM)	relative viability (AZD6482 + Linsitinib; first compound 0.253 µM)	relative viability (AZD6482 + Linsitinib; first compound 0.8 µM)	relative viability (AZD6482 + Linsitinib; first compound 2.53 µM)	relative viability (AZD6482 + Linsitinib; first compound 8 µM)	relative viability (AZD6482 + Foretinib; first compound 2.53 µM)
A-427	0.188	0.221	0.238	0.279	0.992	1.01	0.978	0.741	0.961	0.959	0.937	1.13	1.05	1.02	1.1	1.17	0.951	1.1	
ABC-1	0.197	0.211	0.201	0.297	0.267	0.306	0.317	0.336	0.408	0.868	1.21	1.03	0.719	0.611	0.801	0.81	0.521	0.815	0.86
BEN	0.532	0.47	0.576	0.525	0.592	0.768	0.596	0.641	0.788	0.675	0.62	0.701	0.739	0.884	0.93	0.988	0.717	0.85	0.558
CAL-12T	0.363	0.381	0.365	0.323	0.843		0.895	0.426	0.597	1.11	1.22	1.2	1	0.711	0.604	0.632	0.273	0.445	0.792
COR-L23	0.24	0.195	0.319	0.457	0.948	0.945	1.23	0.678	0.828	0.888	1.04	1.03	0.799	0.595	0.933	1.03	0.565	0.686	0.81
COR-L 105	0.412	0.429	0.385	0.353	0.719	0.893	0.704	0.699	0.791	1.08	0.711	1.03	0.932	0.635	0.779	0.783	0.553	0.603	0.744
EKVX	0.41	0.34	0.476	0.542	0.815	0.965	0.863	0.789	0.689	0.746	0.654	0.921	0.614	0.716	0.6	0.646	0.362	0.544	0.542
EMC-BAC-2	0.264	0.258	0.32	0.317	1.02	1.07	1.12	0.838	0.948	0.861	0.94	0.969	0.698	0.744	0.681	0.781	0.529	0.587	0.718
EPLC-272H	0.247	0.269	0.344	0.29	0.706		0.973	0.904	0.834	0.621	0.426	0.506	0.256	0.999		0.898	0.667	0.537	0.378
H3255	0.604	0.851	0.641	0.742	0.738	0.896	0.874	0.382	0.559	1.03	0.662	0.898	0.627	0.919	0.907	0.945	0.602	0.729	0.498
HARA	0.123	0.125	0.0997	0.236	0.977	1.08	1.37		1.13	0.811	0.809	0.889	0.61	0.691	0.974	1.11		0.775	0.663
HCC-15	0.477	0.378	0.557	0.368	0.926	0.99	1.08	0.904	1.04	0.989	0.882	1.01	0.988	0.803	0.894	0.858	0.812	0.922	0.853
HCC-78	0.388	0.439	0.314	0.409	0.42	0.394	0.337	0.203	0.225	0.471	0.493	0.517	0.349	0.285	0.209	0.223	0.214	0.236	0.351
HCC-366	0.117	0.108	0.105	0.0544	0.944	0.969	1.06	0.84	0.742	0.938	0.897	0.936	0.447	0.383	0.438	0.477	0.151	0.141	0.759
HCC-827	0.406	0.45	0.374	0.423	0.991	1.1	1.09	0.872	0.836	0.986	0.878	0.945	0.499	0.939	0.944	0.926	0.861	0.775	0.678
HOP-62	0.406	0.371	0.401	0.441	0.795	1.12	0.752	0.939	1.18	1.12	1.15	1.23	1.02	1.1	0.836	1.12	0.67	0.841	0.94
LC-2-ad	0.493	0.436	0.551	0.47	1.07	0.962	1.1	0.754	0.926	0.902	0.939	0.878	0.787	0.61	0.48	0.605	0.318	0.511	0.714

Cell Line	relative viability ([1]; first compound 0.2 µM)	relative viability ([1]; first compound 0.6325 µM)	relative viability ([1]; first compound 2 µM)	relative viability ([1]; first compound 6.325 µM)	relative viability (AZD6482 + Bortezomib; first compound 0.08 µM)	relative viability (AZD6482 + Bortezomib; first compound 0.253 µM)	relative viability (AZD6482 + Bortezomib; first compound 0.8 µM)	relative viability (AZD6482 + Bortezomib; first compound 2.53 µM)	relative viability (AZD6482 + Bortezomib; first compound 8 µM)	relative viability (AZD6482 + Foretinib; first compound 0.08 µM)	relative viability (AZD6482 + Foretinib; first compound 0.253 µM)	relative viability (AZD6482 + Foretinib; first compound 0.8 µM)	relative viability (AZD6482 + Foretinib; first compound 8 µM)	relative viability (AZD6482 + Linsitinib; first compound 0.08 µM)	relative viability (AZD6482 + Linsitinib; first compound 0.253 µM)	relative viability (AZD6482 + Linsitinib; first compound 0.8 µM)	relative viability (AZD6482 + Linsitinib; first compound 2.53 µM)	relative viability (AZD6482 + Linsitinib; first compound 8 µM)	relative viability (AZD6482 + Foretinib; first compound 2.53 µM)
LCLC-97TM1	0.185	0.423	0.311	0.256	0.499	0.38	0.435		0.351	0.854	0.778	0.823	0.596	0.189	0.158	0.168	0.134	0.169	0.595
LCLC-103H	0.396	0.494	0.462	0.453	0.969	1.08	0.921	0.742	0.729	0.603	0.55	0.56	0.33	0.869	0.73	0.72	0.605	0.572	0.379
LOU-NH91	0.67	0.703	0.649	0.769	0.453	0.473	0.519	0.475	0.6	0.826	0.846	0.993	0.677	0.782	0.913	0.842	0.598	0.665	0.603
LU99A	0.238	0.255	0.283	0.262	1.07	1.16	1.11	0.875	0.823	0.829	0.828	0.77	0.633	0.445	0.44	0.434	0.331	0.361	0.65
LXF-289	0.184	0.195	0.205	0.211	0.972	1	1.05	0.845	0.947	0.912	0.916	0.977	0.831	0.993	1	0.971	0.806	0.781	0.938
NCI-H23	0.423	0.385	0.481	0.337	0.958	0.861	1.29	0.621	0.861	0.976	0.856	0.922	0.5	0.532	0.477	0.533	0.338	0.57	0.639
NCI-H322M	0.481	0.451	0.417	0.437	1.18	1.22	1.13	0.795	0.871	0.823	0.847	0.897	0.738	0.718	0.601	0.707	0.355	0.651	0.543
NCI-H441	0.607	0.623	0.581	0.69	0.617	0.481	0.595	0.357	0.449	0.852	0.806	1.21	0.87	0.459	0.499	0.554	0.323	0.531	
NCI-H460	0.535	0.399	0.361	0.625	0.957	0.956	1.17	0.685	0.958	1.03	0.977	1	0.719	0.717	0.703	0.783	0.306	0.206	0.828
NCI-H520	0.405	0.405	0.437	0.507	0.489	0.223	0.481		0.306	0.423	0.661	0.493	0.304	0.773	0.623	0.59		0.412	0.203
NCI-H596	0.961	1.1	0.91	0.893	0.988	0.95	0.946	1.01	0.985	0.84	0.853	0.766	0.599	0.789	0.979	1.01	0.957	1.02	0.635
NCI-H647	0.486	0.272	0.366	0.207	0.784		0.777	0.582	0.771	0.86	1.3	0.946	0.623	0.877		0.739	0.7	0.659	0.721
NCI-H650	0.773	0.714	0.793	0.709	0.895		0.927	0.424	0.57	1.02		0.978	0.704	0.856		0.753	0.362	0.491	0.651
NCI-H661	0.377	0.342	0.344	0.363	0.71	0.608	0.723		0.622	0.962	1.06	1.14	0.815	0.446	0.422	0.398		0.37	0.723
NCI-H727	0.655	0.689	0.828	0.584	0.908	0.868	1.06		0.887	0.828	0.862	1.03	0.797	0.203	0.296	0.284		0.281	0.786
NCI-H838	0.28	0.27	0.286	0.246	0.629	0.498	0.793	0.602	0.622	0.855	0.964	0.873	0.469	0.805	0.994	0.934	0.614	0.769	0.581
NCI-H1355	0.565	0.539	0.582	0.546	1.06	1.06	1.16	0.874	1.03	0.769	0.812	0.962	0.641	0.472	0.55	0.576	0.526	0.536	0.713
